In PubChem BioAssay (NCI):
Where “and” joins values, the source holds several entries; their conditions need not be identical. Equal values may be shown once.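 96-well plates; 48 h exposure; 5 concentrations. Endpoints by linear interpolation between flanking doses. Not reached: highest tested concentration assigned. Here, GI50 denotes the concentration required for 50% inhibition of growth. TGI marks complete inhibition of growth.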

Legend:
Experiment in all cases: NCI-60 cell line screen, 48 h
KM12 colon = system: KM12 colon
K-562 leukemia = system: K-562 leukemia
BT-549 breast = system: BT-549 breast
UO-31 renal = system: UO-31 renal
NCI-H23 lung = system: NCI-H23 lung
MOLT-4 leukemia = system: MOLT-4 leukemia
TK-10 renal = system: TK-10 renal
SN12C renal = system: SN12C renal
HL-60(TB) leukemia = system: HL-60(TB) leukemia
EKVX NSCLC = system: EKVX NSCLC

Structure (SMILES) | TGI (KM12 colon) [µM] | TGI (K-562 leukemia) [µM] | TGI (BT-549 breast) [µM] | TGI (UO-31 renal) [µM] | TGI (NCI-H23 lung) [µM] | TGI (MOLT-4 leukemia) | TGI (TK-10 renal) [µM] | TGI (SN12C renal) [µM] | TGI (HL-60(TB) leukemia) [µM] | TGI (EKVX NSCLC) [µM] | GI50 (K-562 leukemia) [µM] | GI50 (NCI-H23 lung) [µM] | GI50 (MOLT-4 leukemia) [µM] | GI50 (SN12C renal) [µM] | GI50 (EKVX NSCLC) [µM] | GI50 (KM12 colon) [µM] | GI50 (BT-549 breast) [µM] | GI50 (UO-31 renal) [µM] | GI50 (TK-10 renal) [µM] | GI50 (HL-60(TB) leukemia) [µM]
CC12CCC(C/C1=N\NC(N)=O)C2(C)C (stereo unspecified) | > 100 | > 100 | > 100 | > 100 | > 100 | > 100 µM | > 100 | > 100 | > 100 | > 100 |  |  |  |  |  |  |  |  |  | 
CC(O)(C(=O)N(O)c1ccc(Cl)cc1)c1ccc(Cl)cc1 (stereo unspecified) | > 100 | 43.1 | 61.5 | 42.4 | 59.7 | 42.9 µM | > 100 | > 100 | 35.9 | > 100 |  |  |  |  |  |  |  |  |  | 
COCC(=O)OC1CCn2c1nc1c2C(=O)C(C)=C(NC(C)=O)C1=O (stereo unspecified) | 30.5 | 11.9 | 24.4 | 26.2 | 22.5 | 6.36 µM and 4.94 µM | 34.5 | 18.9 | 3.68 | 20.3 | 3.23 | 3.23 | 0.772 | 4.62 | 3.75 |  |  |  |  | 
COP(=O)(CC(=O)C1OC(OCc2ccccc2)C(OCc2ccccc2)C(OCc2ccccc2)C1OCc1ccccc1)OC (stereo unspecified) | 37.6 | > 100 | 71.2 | 7.1 | > 100 | > 100 µM | 79.8 | 11.2 | 23.7 | 50.4 |  |  |  |  |  |  |  |  |  | 
O=C(O)c1cc2ccccc2c(S(=O)(=O)O)c1O | > 100 | > 100 | > 100 | > 100 | > 100 | > 100 µM | > 100 | > 100 | > 100 | > 100 |  |  |  |  |  |  |  |  |  | 
CC1(C)OC(CCO)CN1C(=O)OCc1ccccc1 (stereo unspecified) | > 100 | > 100 | > 100 | > 100 | > 100 | > 100 µM | > 100 | > 100 | > 100 | > 100 |  |  |  |  |  |  |  |  |  | 
Cc1ccc2c(c1)C(=O)/C(=C\c1ccc(Cl)cc1)CCS2(=O)=O | 7.71 | 3.32 | 12.7 | 9.02 | 10.2 | 9.79 µM | 5.11 | 8.37 | 5.26 | 25.3 |  |  |  |  |  |  |  |  |  | 
O=CN(O)CC(=O)O | > 100 | > 100 | > 100 | > 100 | > 100 | > 100 µM | > 100 | > 100 | > 100 | > 100 |  |  |  |  |  |  |  |  |  | 
COc1cc2c(cc1OCCCOc1cc3c(cc1OC)C(=O)N1CCC[C@H]1CN3)N=C[C@@H]1CCCN1C2=O | 0.327 | 0.483 | 10.3 | > 100 | 0.709 | 0.148 µM | 0.554 | > 33 | 0.68 | > 49 |  |  |  |  |  |  |  |  |  | 
COn1cc(CO)c2ccccc21 | > 100 | > 100 | > 100 | > 82 | > 100 | > 100 µM | > 46.2 | > 100 | > 100 | > 100 |  |  |  |  |  |  |  |  |  | 
COc1ccc(CCCCl)c(C2=NCCc3ccccc32)c1 | > 100 | > 100 | > 100 | > 100 | > 100 | > 100 µM | > 100 | > 100 | > 100 | > 100 |  |  |  |  |  |  |  |  |  | 
COc1cc(/C=C/c2cc(=O)cc(/C=C/c3ccc(O)c(OC)c3)o2)ccc1O | > 100 | > 100 | > 100 | > 100 | > 100 | > 100 µM | > 100 | > 100 | > 100 | > 100 |  |  |  |  |  |  |  |  |  | 
Cc1ccc(C(=O)c2[nH]c(Nc3cc(C)ccn3)c(C(=S)Nc3ccccc3)c2N)cc1 | > 100 | > 100 | > 100 | > 100 | > 100 | > 100 µM | > 100 | > 100 | > 100 | > 100 |  |  |  |  |  |  |  |  |  | 
O=C(/C=C1\C[C@H]2C=Nc3ccccc3C(=O)N2C1)NCCCCCNC(=O)/C=C1\C[C@H]2C=Nc3ccccc3C(=O)N2C1 | 41 | > 51.9 | 26 | 3.8 | 26.2 | > 100 µM | 10.5 | 10.6 | 6.13 | 38.5 |  |  |  |  |  |  |  |  |  | 
Nc1n[nH]c2ccccc12 | > 100 | > 100 | > 100 | > 100 | > 100 | > 100 µM | > 100 | > 100 | > 100 | > 100 |  |  |  |  |  |  |  |  |  | 
Nc1nc(Nc2ccc(OCc3cccc(F)c3)cc2)c2c(n1)[nH]c1ccc(O)cc12 | 11.7 | 6.65 | 4.01 | 4.12 | 22.2 | 8.34 µM | 16.4 | 4.56 | 4.21 | 29.4 | 2.66 | 4.12 | 2.77 | 2.08 | 8.86 | 3.55 | 1.88 | 1.75 | 3.49 | 2.01
COc1cc2c3c(n(C)c(=O)c2cc1OC)-c1cc2c(cc1/C3=C/CCCCBr)OCO2 | > 100 | > 100 | > 100 | > 100 | > 100 | > 100 µM | > 100 | > 100 | > 100 | > 100 |  |  |  | > 100 |  |  |  |  |  | 
